# Test results as given in PMC8841437 (Clinical and Translational Science, 2021).
# What was measured:
# Type in all cases: in vivo, human
# [1] = Single ascending dose; details: for increase in bioavailability by food intake: fed vs fasted; for AUC: AUC(0‐T); for AUC / Cmax: n = 6, geometric mean (geometric CV%); for Cmax: fed (high-fat breakfast)
# [2] = Urinary excretion of milvexian
# [3] = system: healthy participants; experiment: Safety and tolerability; details: for Abdominal discomfort (TEAE) / Abdominal pain (TEAE) / Any TEAE / Diarrhea (TEAE) / Dizziness (TEAE) / Headache (TEAE) / Nausea (TEAE) / Oropharyngeal pain (TEAE) / Pain in extremity (TEAE): n = 6
# [4] = MAD panel 10, 200 mg q.d. fasted
smiles,measurement,setting,value
C[C@@H]1CCC[C@H](n2cnc(-c3cc(Cl)ccc3-n3cc(Cl)nn3)cc2=O)c2cc(ccn2)-c2c(cnn2C(F)F)NC1=O [milvexian],increase in bioavailability by food intake,[1]; SAD 200-mg panel,~ 1.4 fold
same,increase in bioavailability by food intake,[1]; SAD 500-mg panel,~ 2 fold
same,mean T1/2 shortened when administered with food,"[1]; SAD panels 4 and 6, fed vs fasted",1.5 h
same,dose proportionality of Cmax and exposure,"[1]; SAD, fasted, 20 to 200 mg",generally dose‐proportional
same,AUC,"[1]; human, plasma, oral, 4 mg, SAD panel 1, 4 mg, fasted",125 ng·h/mL
same,AUC,"[1]; human, plasma, oral, 20 mg, SAD panel 2, 20 mg, fasted",1220 ng·h/mL
same,AUC,"[1]; human, plasma, oral, 60 mg, SAD panel 3, 60 mg, fasted",3790 ng·h/mL
same,AUC,"[1]; human, plasma, oral, 200 mg, SAD panel 4, 200 mg, fasted",12500 ng·h/mL
same,AUC,"[1]; human, plasma, oral, 200 mg, SAD panel 4, 200 mg, fed",17800 ng·h/mL
same,Cmax,"[1]; human, plasma, oral, 200 mg, SAD panel 4, 200 mg",1640 ng/mL
same,AUC,"[1]; human, plasma, oral, 300 mg, SAD panel 5, 300 mg, fasted",14600 ng·h/mL
same,AUC,"[1]; human, plasma, oral, 500 mg, SAD panel 6, 500 mg, fasted",21000 ng·h/mL
same,AUC,"[1]; human, plasma, oral, 500 mg, SAD panel 6, 500 mg, fed",44300 ng·h/mL
same,Cmax,"[1]; human, plasma, oral, 500 mg, SAD panel 6, 500 mg",3360 ng/mL
same,half-life,"[1]; human, plasma, oral, T1/2, range across all SAD panels, SAD, 4-500 mg",8.3 to 13.8 h
same,Tmax,"[1]; human, plasma, oral, Tmax, summary in discussion, rapid absorption",2 to 4 h
same,mean total amount excreted in urine from 0 to 24 h postdose,"[2]; MAD panel 9, 70 mg q.d., day 1",14.8 % of the administered dose
same,mean total amount excreted in urine from 0 to 24 h postdose,"[2]; MAD panel 9, 70 mg q.d., day 14",17.3 % of the administered dose
same,mean total amount excreted in urine from 0 to 24 h postdose,"[2]; MAD panel 10, 200 mg q.d., day 1",10.4 % of the administered dose
same,mean total amount excreted in urine from 0 to 24 h postdose,"[2]; MAD panel 10, 200 mg q.d., day 14",14.1 % of the administered dose
same,Renal excretion,[2]; all panels,less than 20%
same,epistaxis,[3]; MAD 5-mg q.d. group,one participant
same,gingival bleeding,"[3]; MAD 5-mg q.d. group, considered treatment-related, mild",one participant
same,petechia,"[3]; MAD 70-mg q.d. group, considered treatment-related, mild",one participant
same,Abdominal discomfort (TEAE),"[3]; MAD panel 7, 5 mg q.d. fasted",1 (16.7) n (%)
same,Abdominal pain (TEAE),"[3]; MAD panel 7, 5 mg q.d. fasted",0 n (%)
same,Any TEAE,"[3]; MAD panel 7, 5 mg q.d. fasted",4 (66.7) n (%)
same,Diarrhea (TEAE),"[3]; MAD panel 7, 5 mg q.d. fasted",1 (16.7) n (%)
same,Dizziness (TEAE),"[3]; MAD panel 7, 5 mg q.d. fasted",0 n (%)
same,Headache (TEAE),"[3]; MAD panel 7, 5 mg q.d. fasted",2 (33.3) n (%)
same,Nausea (TEAE),"[3]; MAD panel 7, 5 mg q.d. fasted",0 n (%)
same,Oropharyngeal pain (TEAE),"[3]; MAD panel 7, 5 mg q.d. fasted",0 n (%)
same,Pain in extremity (TEAE),"[3]; MAD panel 7, 5 mg q.d. fasted",0 n (%)
same,discontinuation of treatment because of an AE (macular rash),"[3]; MAD panel 7, after one dose of 5 mg",one participant
same,Abdominal discomfort (TEAE),"[3]; MAD panel 8, 20 mg q.d. fasted",0 n (%)
same,Abdominal pain (TEAE),"[3]; MAD panel 8, 20 mg q.d. fasted",0 n (%)
same,Any TEAE,"[3]; MAD panel 8, 20 mg q.d. fasted",1 (16.7) n (%)
same,Diarrhea (TEAE),"[3]; MAD panel 8, 20 mg q.d. fasted",0 n (%)
same,Dizziness (TEAE),"[3]; MAD panel 8, 20 mg q.d. fasted",0 n (%)
same,Headache (TEAE),"[3]; MAD panel 8, 20 mg q.d. fasted",1 (16.7) n (%)
same,Nausea (TEAE),"[3]; MAD panel 8, 20 mg q.d. fasted",0 n (%)
same,Oropharyngeal pain (TEAE),"[3]; MAD panel 8, 20 mg q.d. fasted",0 n (%)
same,Pain in extremity (TEAE),"[3]; MAD panel 8, 20 mg q.d. fasted",0 n (%)
same,Abdominal discomfort (TEAE),"[3]; MAD panel 9, 70 mg q.d. fasted",1 (16.7) n (%)
same,Abdominal pain (TEAE),"[3]; MAD panel 9, 70 mg q.d. fasted",1 (16.7) n (%)
same,Any TEAE,"[3]; MAD panel 9, 70 mg q.d. fasted",5 (83.3) n (%)
same,Diarrhea (TEAE),"[3]; MAD panel 9, 70 mg q.d. fasted",3 (50.0) n (%)
same,Dizziness (TEAE),"[3]; MAD panel 9, 70 mg q.d. fasted",1 (16.7) n (%)
same,Headache (TEAE),"[3]; MAD panel 9, 70 mg q.d. fasted",2 (33.3) n (%)
same,Nausea (TEAE),"[3]; MAD panel 9, 70 mg q.d. fasted",1 (16.7) n (%)
same,Oropharyngeal pain (TEAE),"[3]; MAD panel 9, 70 mg q.d. fasted",0 n (%)
same,Pain in extremity (TEAE),"[3]; MAD panel 9, 70 mg q.d. fasted",1 (16.7) n (%)
same,Abdominal discomfort (TEAE),[3]; [4],0 n (%)
same,Abdominal pain (TEAE),[3]; [4],1 (16.7) n (%)
same,Any TEAE,[3]; [4],4 (66.7) n (%)
same,Diarrhea (TEAE),[3]; [4],1 (16.7) n (%)
same,Dizziness (TEAE),[3]; [4],0 n (%)
same,Headache (TEAE),[3]; [4],1 (16.7) n (%)
same,Nausea (TEAE),[3]; [4],2 (33.3) n (%)
same,Oropharyngeal pain (TEAE),[3]; [4],1 (16.7) n (%)
same,Pain in extremity (TEAE),[3]; [4],1 (16.7) n (%)
same,Abdominal discomfort (TEAE),"[3]; MAD panel 11, 500 mg q.d. fed",0 n (%)
same,Abdominal pain (TEAE),"[3]; MAD panel 11, 500 mg q.d. fed",0 n (%)
same,Any TEAE,"[3]; MAD panel 11, 500 mg q.d. fed",3 (50.0) n (%)
same,Diarrhea (TEAE),"[3]; MAD panel 11, 500 mg q.d. fed",0 n (%)
same,Dizziness (TEAE),"[3]; MAD panel 11, 500 mg q.d. fed",0 n (%)
same,Headache (TEAE),"[3]; MAD panel 11, 500 mg q.d. fed",0 n (%)
same,Nausea (TEAE),"[3]; MAD panel 11, 500 mg q.d. fed",0 n (%)
same,Oropharyngeal pain (TEAE),"[3]; MAD panel 11, 500 mg q.d. fed",0 n (%)
same,Pain in extremity (TEAE),"[3]; MAD panel 11, 500 mg q.d. fed",0 n (%)
